Reference: patent US20080221013A1, “Neurobiological compositions” (priority 2006, published 2008)
Like-named read-outs stand apart in the source and are kept apart here.

Tests used:
[1] = test system: nAChRs; experiment: whole-cell patch clamp recordings of nicotine-induced currents in medial habenula neurons in brain slices; assay type: cell-based, mouse; conditions: for EC50: 250 ms nicotine pulse, 0.1 μM to 300 μM, read-out: EC50 of nicotine-induced current
[2] = test system: striatum; conditions: drinking water from 8 months of age for 10 months
[3] = test system: pain sensitivity; conditions: lynx1 null mutant mice vs wild-type
[4] = test system: primary cortical cultures
[5] = test system: primary cortical cultures; remark: listed apart in the source
Experimental: Cultured cells were then loaded with the Ca^2+ sensitive indicator fluo-3 and fluorescence measurements were obtained (FIG. 5A). […] Acute responses to nicotine were measured using fluorescence levels in real time.

[6] = test system: motor learning; conditions: 200 μg/ml nicotine in 2% saccharin
[7] = test system: seizure activity; conditions: lynx1 null mutant mice vs wt; single injection of nicotine
[8] = target: T1, alpha4beta2 nAChRs (Homo sapiens, UniProt P17787+P43681); experiment: co-immunoprecipitation in transiently transfected HEK293 cells; assay type: binding; conditions: IP with nAChR antibodies, Western blot
T1 construct: expressed in transfected cells; host or cells: HEK293

[9] = target: T2, alph4beta2 nAChRs (Homo sapiens, UniProt P17787+P43681); experiment: voltage-clamp recordings of xenopus oocytes heterologously expressing nAChR and lynx cRNA; assay type: cell-based; conditions: coexpressed with a4b2 nAChRs in oocytes, 1 mM ACh; for desensitization of ACh-evoked currents during agonist application: 20 sec; for fast time constant of desensitization / slow time constant of desensitization (plateau phase): two-exponential fit
T2 construct: expressed in transfected cells; host or cells: Xenopus oocytes injected with cRNA
Experimental: (§1) The inward currents were evoked by 20 sec periods of superfusion (horizontal calibration bar) with external saline containing 1 mM ACh. […] B and C. The differences in desensitization are shown with bar graphs. As described in (2), two exponentials equations were fitted to the desensitization currents during ACh application. Using these equations, fast (B) and slow (C) time constants were calculated and the average values of these constants for ACh responses are shown in B and C.
as §1, with “C).” for “C.”, “shown.” for “are shown in B and C.”

T2 sequence (P43681 29-627 limits assumed): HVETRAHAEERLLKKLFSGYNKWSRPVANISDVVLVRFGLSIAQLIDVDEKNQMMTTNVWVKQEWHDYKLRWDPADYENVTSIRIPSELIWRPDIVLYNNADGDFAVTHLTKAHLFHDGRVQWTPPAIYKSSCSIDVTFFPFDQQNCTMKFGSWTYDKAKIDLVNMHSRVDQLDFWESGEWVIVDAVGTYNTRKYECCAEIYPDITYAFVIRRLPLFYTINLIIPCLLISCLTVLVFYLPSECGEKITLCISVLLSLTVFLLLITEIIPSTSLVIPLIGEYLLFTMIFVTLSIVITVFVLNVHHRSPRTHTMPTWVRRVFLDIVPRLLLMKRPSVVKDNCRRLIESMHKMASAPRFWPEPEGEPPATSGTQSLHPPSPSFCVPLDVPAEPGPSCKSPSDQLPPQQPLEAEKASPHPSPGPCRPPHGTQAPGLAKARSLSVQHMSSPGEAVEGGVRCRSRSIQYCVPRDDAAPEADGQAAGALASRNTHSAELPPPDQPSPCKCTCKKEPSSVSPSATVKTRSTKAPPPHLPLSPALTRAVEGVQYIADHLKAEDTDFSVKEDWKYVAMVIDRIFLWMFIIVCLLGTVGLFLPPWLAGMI
T2 sequence (P17787 26-502): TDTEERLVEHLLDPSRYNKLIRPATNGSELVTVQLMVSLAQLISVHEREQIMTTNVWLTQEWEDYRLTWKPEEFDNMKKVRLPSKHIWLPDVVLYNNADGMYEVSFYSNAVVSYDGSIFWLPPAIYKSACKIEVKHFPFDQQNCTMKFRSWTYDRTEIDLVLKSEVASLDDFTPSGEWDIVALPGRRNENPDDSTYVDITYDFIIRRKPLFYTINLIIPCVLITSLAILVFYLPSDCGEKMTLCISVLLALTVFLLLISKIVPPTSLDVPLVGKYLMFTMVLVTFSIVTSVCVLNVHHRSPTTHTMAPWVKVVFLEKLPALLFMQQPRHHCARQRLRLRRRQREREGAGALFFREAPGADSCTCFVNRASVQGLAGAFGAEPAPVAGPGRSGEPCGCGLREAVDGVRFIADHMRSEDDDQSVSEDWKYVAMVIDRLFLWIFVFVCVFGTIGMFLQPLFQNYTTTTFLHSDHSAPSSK
T1 sequence (P43681 29-627 limits assumed): as the sequence (P43681 29-627 limits assumed) above
T1 sequence (P17787 26-502): as the sequence (P17787 26-502) above

## CNC1(C)C2CCC(C2)C1(C)C (centres unmarked) [mecamylamine]
[1]; nAChR antagonist, recovered during wash out
  effect on nicotine-induced currents: blocked

## CN1CCCC1c1cccnc1 (centres unmarked) [nicotine]
[2]; lynx1−/− mice
  vacuolation in the striatum, nicotine solution vs saccharin: significant increase in vacuolation
[2]; wild-type mice
  vacuolation in the striatum, nicotine/saccharin vs saccharin: no significant differences in vacuolation
[3]
  antinociceptive effect of nicotine, time on a hot-plate: enhanced sensitivity
[4]; lynx1−/− neurons, nicotine pretreatment, glutamate
  neuroprotection against glutamate-mediated cell death: completely abolished
[4]; wild-type neurons, 1 hour pretreatment of nicotine, 100 μM glutamate
  neuroprotection against glutamate-mediated cell death: protects wild-type neurons from cell death
[5]; lynx1−/− cultures
  acute Ca2+ response, fluorescence in real time: significant increase
[5]; lynx1−/− cultures, 10 μm nicotine
  increase in fluorescence (steady state Ca2+ levels): 2 fold
[5]; lynx1−/− cultures, dose-response
  nicotine concentration sufficient for activation of nAChRs and elevation of Ca2+ levels: […]
[5]; wild-type cultures
  acute Ca2+ response, fluorescence in real time: not
[5]; wild-type cultures, 10 μm nicotine
  change in steady state Ca2+ levels (fluorescence): did not result in a significant change
[5]; wild-type cultures, any of the concentrations tested
  change in fluorescence in dose-response measurements: no change in fluorescence
[1]; lynx1 null mutant vs wild-type
  decrease of EC50 for nicotine on loss of lynx1: […]
[1]; lynx1−/− mice
  EC50: […]
[1]; neurons from lynx1−/− mice
  half-maximal response time (decay of nicotine response): […]
[1]; wild-type mice
  EC50: […]
[1]; wild-type neurons
  half-maximal response time (decay of nicotine response): […]
[6]; lynx1−/− mice, 2nd day of training
  rotarod performance relative to similarly treated wild-type mice: significant improvement in rotarod performance
[6]; wild-type mice, at least 6 weeks
  rotarod performance vs saccharin-treated mice: this difference was not significant
[7]
  nicotine induced seizures, seizure index (scale of 1-8): […]

## lynx3: lynx family polypeptide with modulatory capacity on nAChRs; mouse lynx3 (SEQ ID NO:7)
[8]
  association with nAChRs in co-immunoprecipitation: stable associations
[9]
  desensitization of ACh-evoked currents during agonist application: significantly faster desensitization
  fast time constant of desensitization: significantly faster
  slow time constant of desensitization (plateau phase): remained the same

B1: lynx2: lynx family polypeptide related to lynx1; mouse lynx2 (SEQ ID NO:5) (protein, listed as Mus musculus)
chain: MWVLGIAATFCGLFWLPGLALQIQCYQCEEFQLNNDCSSPEFIVNCTVNVQDMCQKEVMEQSAGIMYRKSCASSAACLIASAGYQSFCSPGKLNSVCISCCNTPLCNGPRPKKRGSSASAIRPGLLTTLLFFHLALCLAHC
[8]
  association with nAChRs in co-immunoprecipitation: stable associations
[9]
  desensitization of ACh-evoked currents during agonist application: significantly faster desensitization
  fast time constant of desensitization: significantly faster
  slow time constant of desensitization (plateau phase): remained the same

B2: ly6H: a lynx-related gene, a related family member, used as comparator (protein)
chain: LWCQDCTLANSSHCAPKQCQPTDTVCASVRITDPSSSRKDHSVNKMCASSCDFVKRHFFSDYLMGFINSGILKVDVDCCEKDLCN
[8]
  association with nAChRs in co-immunoprecipitation: not
[9]
  desensitization of ACh-evoked currents during agonist application: no effect on desensitization
  fast time constant of desensitization: unaffected
  slow time constant of desensitization (plateau phase): unaffected
